Laboratory results as given in patent US20260257992A1, “AGONISTS OF SMALL HETERODIMER PARTNER FOR CANCER THERAPY” (THE BOARD OF TRUSTEES OF THE UNIVERSITY OF ILLINOIS, priority 2023, published 2026).

What was measured:
breast cancer cell lines = test: Proliferation of breast cancer cell lines; assay type: cell-based
Excerpt: Protective attributes of NR0B2 are likely due to its expression in myeloid cells. […] Among human PBMCs, various subtypes of dendritic cells (DCs) and monocyte populations had elevated expression of NR0B2.

4T1 tumors = test: Orthotopic 4T1 primary tumor growth; assay type: in vivo, mouse; conditions: DSHN combined with αPDL1
Excerpt: FIG. 3A-3F. DSHN, a tool small molecule agonist of NR0B2 reduces macrophage/dendritic cell induced Treg expansion and tumor growth in murine models. […] (B) Dendritic cells (left-CD11B^+; CD11C^+) and CD4^+ T cells (right) were isolated from MMTV-PyMT tumors by FACS, and treated with vehicle or DSHN for 3d. The resulting frequency of Treg (CD4^+; CD25^+; FoxP3^+) was quantified by flow cytometry (right graph), (N=3-5/group, t test). […] The percentage of divided CD8+ T cells in the second round was quantified. (D) DSHN increases efficacy of αPDL1 therapy on orthotopic E0771 tumors. An optimal number of E0771 cells were grafted into FoxP3-EGFP mice and allowed to grow until tumors reached 100 mm^3. […] At the end of the study, lungs were removed and imaged ex vivo, quantified data indicated (N=10, 1-way ANOVA followed by Newman-Keuls multiple comparison test). […]
We then evaluated DSHN in a model where a low, suboptimal number of E0771-luc cells were grafted orthotopically. […] Treatment was ceased after 18 days and mice were monitored through time. […] We next assessed the effects of DSHN combined with αPDL1 on growth of primary tumors (optimal number of cells used to establish graft). […] We then evaluated the ability of DSHN to impact established metastatic disease—a stage that is refractory to standard of care therapy and immune checkpoint blockade. […]

Lewis Lung tumors = Lewis Lung tumors grown in the flank; assay type: in vivo, mouse
Excerpt: FIG. 7A-7I. DSHN-OMe reduces tumor and metastatic growth in murine models, in a myeloid cell-NR0B2 dependent manner. (A) E0771 cells were grafted into control mice (NR0B2^+/+; LysMCre^+) or mice where NR0B2 was knocked out in myeloid immune cells (NR0B2^fl/fl; LysMCre^+). 8 days post-graft, daily treatment with placebo or DSHN-OMe was initiated and subsequent tumor growth followed through time. Different letters denote statistical difference on the final measurement (day 21, 2-Way ANOVA followed by Šidák's post-hoc, N=5-8). (B) Waterfall plot illustration of data in (A) showing tumor volume at final day of measurement. Asterisk indicates significant difference (Chi-squared test, P<0.05). (C) Lewis Lung cells were grafted into control mice (NR0B2^+/+; LysMCre^+) or mice where NR0B2 was knocked out in myeloid immune cells (NR0B2^fl/fl; LysMCre^+). 10 days post-graft, daily treatment with placebo or DSHN-OMe was initiated and subsequent tumor growth followed through time. […] (G) EMT6 metastatic lungs were assessed for Ki67 mRNA and (H) FOXP3 mRNA. (I) EMT6 metastatic lungs were assessed for CD8+ cytotoxic T cells (CD8+). […]
Since Tregs are considered a problem common to many solid tumor types, we reasoned that DSHN-OMe should have broad efficacy. To test this, we evaluated the ability of DSHN-OMe to influence the growth of murine Lewis Lung tumors grown in the flank.

EMT6 metastatic lesions = test: EMT6 metastatic mammary cancer (intravenous graft); assay type: in vivo, mouse
Excerpt: FIG. 7A-7I. DSHN-OMe reduces tumor and metastatic growth in murine models, in a myeloid cell-NR0B2 dependent manner. (A) E0771 cells were grafted into control mice (NR0B2^+/+; LysMCre^+) or mice where NR0B2 was knocked out in myeloid immune cells (NR0B2^fl/fl; LysMCre^+). 8 days post-graft, daily treatment with placebo or DSHN-OMe was initiated and subsequent tumor growth followed through time. Different letters denote statistical difference on the final measurement (day 21, 2-Way ANOVA followed by Šidák's post-hoc, N=5-8). (B) Waterfall plot illustration of data in (A) showing tumor volume at final day of measurement. Asterisk indicates significant difference (Chi-squared test, P<0.05). (C) Lewis Lung cells were grafted into control mice (NR0B2^+/+; LysMCre^+) or mice where NR0B2 was knocked out in myeloid immune cells (NR0B2^fl/fl; LysMCre^+). 10 days post-graft, daily treatment with placebo or DSHN-OMe was initiated and subsequent tumor growth followed through time. Different letters denote statistical difference on the final measurement (day 21, 2-Way ANOVA followed by Šidák's post-hoc, N=8-13). (D) Waterfall plot illustration of data in (C) showing tumor volume at final day of measurement. Asterisk indicates significant difference (Chi-squared test, P<0.05). (E) DSHN-OMe is an effective treatment against metastatic 4T1 mammary cancer growth. 4T1 cells were grafted intravenously, and lung metastatic lesions allowed to establish for 3d before treatment commenced. Metastatic burden through time is presented above the metastatic burden on the final day of imaging in the middle panel (N=12-17/group, mixed-effects model followed by Tukey's multiple comparison test). Representative luciferase images in the bottom panel. (F) DSHN-OMe is an effective treatment against metastatic EMT6 mammary cancer growth. EMT6 cells were grafted intravenously, and lung metastatic lesions allowed to establish for 3d. DSHN-OMe was administered on days 4, 5, 8, 9 and 10 post-graft. 11d post-graft lungs were imaged ex vivo for luciferase (N=15/group). (G) EMT6 metastatic lungs were assessed for Ki67 mRNA and (H) FOXP3 mRNA. (I) EMT6 metastatic lungs were assessed for CD8+ cytotoxic T cells (CD8+). Asterisks indicate statistically significant differences.
Metastatic breast cancer urgently requires new therapeutic approaches. Therefore, we tested the ability of DSHN-OMe to reduce the subsequent growth of established metastases. 4T1 cells were introduced intravenously and lesions allowed to establish for 3d. Since ICB has been approved for a subset of TNBC patients, we also included groups treated with αPDL1. […] We confirmed these findings using a different model of murine TNBC, EMT6. […]

SMILES | Proliferation of breast cancer cell lines (breast cancer cell lines) | Growth of established 4T1 tumors, combined with αPDL1 (4T1 tumors) | Lewis Lung tumor growth (Lewis Lung tumors; NR0B2-replete mice, daily treatment from day 10, versus placebo) | Lewis Lung anti-tumor effect, dependence on myeloid NR0B2 (Lewis Lung tumors; NR0B2fl/fl, LysMCre+ versus replete mice) | EMT6 metastatic burden (EMT6 metastatic lesions; lungs imaged ex vivo 11 d post-graft) | CD8+ cytotoxic T cells in EMT6 metastatic lungs (EMT6 metastatic lesions; mouse, in vivo) | Foxp3 expression in EMT6 metastatic lungs (EMT6 metastatic lesions; mouse, in vivo) | Ki67 mRNA in EMT6 metastatic lungs (EMT6 metastatic lesions; mouse, in vivo)
CCN(CC)S(=O)(=O)c1cccc2cc(C(=O)O)c(O)cc12 [DSHN, reference compound] | no effect on proliferation | decreased growth |  |  |  |  |  | 
CCN(CC)S(=O)(=O)c1cccc2cc(C(=O)OC)c(O)cc12 [DSHN-OMe, Methyl 5-(N,N-diethylsulfamoyl)-3-hydroxy-2-naphthoate] |  |  | significantly reduced tumor growth | only observed in mice with replete myeloid cell expression of NR0B2 | significantly reduced metastatic burden | increase in the relative abundance of CD8+ cytotoxic T cells | decreased Foxp3 expression | decreased
